The assay concerns human fetal liver fibroblasts (HFLF). Briefly: Glutamine transport assay (inhibition and kinetic analysis). It is filed as cell-based. As for the experimental part: FIG. 5. Functional and molecular assessment of ATB^0 expression in human fetal liver fibroblasts (HFLF) and cirrhotic liver tissue. A) Amino acid inhibition analysis of Na^+-dependent glutamine uptake in human fetal liver fibroblasts. Fibroblasts were isolated and cultured as described in the Methods section, and amino acid inhibition analysis of 50 μM L-glutamine uptake was carried out as described in FIG. 1. *p<0.010 vs. control. The Eadie-Hofstee plot of the kinetic analysis is shown as an inset, with the dashed lines representing the resolved high and low affinity components of the composite data (solid line). The derived values of the kinetic constants for each component are given in the Results section. B) Northern blot analysis of ATB^0 expression in HFLF. Radiolabeled cDNA probes were generated with the Megaprime™ kit as described in the Methods section, and hybridized to 20 μg of total RNA from HFLF. Exposure time was 24 h. C) RT-PCR and restriction enzyme analysis of ATB^0 expression in HFLF, normal and cirrhotic liver. The analysis was carried out exactly as described in FIG. 3. Omission of RT is shown for the normal liver sample. D) Expression of ATB^0 in biopsies from a patient with liver cirrhosis and hepatocellular carcinoma (HCC). Northern blot analysis of ATB^0 & SN1 expression were performed on RNA extracted from the snap-frozen biopsies. RNA isolation and northern blot analysis was carried out as described in the Methods section, with full-length riboprobes used for detection of transporter mRNA. Exposure times for the blots are shown to illustrate relative expression levels for ATB^0 in each of the samples.
Glutamine Transport Assays. Measurement of initial-rate glutamine uptake was carried out via the cluster-tray method originally described by Gazzola (21) as reported previously (6, 9). Briefly, after trypsinization hepatoma cells were plated at a density of 1×10^5 cells/well in 24-well culture plates (Costar Corp., Cambridge, Mass.) and allowed to grow to >80% confluence, typically one to two days later. For initial-rate measurements, the radiotracer utilized was L-[G-^3H] glutamine (Amersham Corp., Arlington Heights, Ill.) at 4 μCi/ml, in the presence of unlabeled L-glutamine at 50 μM. For kinetic studies, the amount of unlabeled glutamine in the transport buffer varied from 10 μM to 10 mM. All transport measurements were carried out at 37° C. and were terminated after 30 s by three rapid washes with an ice-cold phosphate-buffered saline solution. Intracellular radiolabeled glutamine was extracted with 0.2 ml/well of 0.2% sodium dodecyl sulfate (SDS) and 0.2 N NaOH; after 1 h, 0.1 ml of the lysate was neutralized with 10 μl of 2 N HCl and subjected to scintillation spectrophotometry in a Packard TopCount™ (Packard Instruments, Meriden, Conn.). The remaining lysate was utilized for the determination of cellular protein by the bicinchoninic acid (BCA) method (Pierce Chemical Co., Rockford, Ill.). Rates of glutamine transport were calculated from the cpm per sample, the specific activity of the uptake mix (in cpm/nmol) and normalized to cellular protein content in a Microsoft Excel® spreadsheet program. Transport values obtained in the absence of extracellular Na^+ (diffusion and Na^+-independent uptake) were subtracted from those in the presence of Na^+ (total uptake) to yield Na^+-dependent rates which are reported in units of nmol•mg^−1 protein•30 s^−1. All transport values depicted are the average±standard deviation of four separate determinations. Kinetic analysis of Eadie-Hofstee linearized transport data (v vs. v/[L-GLN]) was performed by regression analysis (Cricket Graph®, Computer Associates, Islandia, N.Y.). Nonlinear regression analysis was performed with DataDesk (Data Description, Inc. Ithaca, N.Y.) and Excel for two component Michaelis-Menten kinetics: v=((Vmax1×[S])/(Km1+[S])+(Vmax2×[S])/(Km2+[S])). […]

Where two headings read alike, the source gives them in different places.

What is called Km is the substrate concentration at which the rate is half of its maximum. Take `NC(=O)CC[C@H](N)C(=O)O` [glutamine, L-glutamine]: the “Vmax, high affinity component” value was 5.3 nmol•mg^−1 protein•30 s^−1 and the “Vmax, low affinity component” value was 3.1 nmol•mg^−1 protein•30 s^−1. For the same compound, the Km (read-out: Km, high affinity component) stood at 163 µM. Where the note is “read-out: Km, low affinity component”, the Michaelis constant (Km) is 1200 µM.

Source of the values: US20060280725A1, “Compositions and methods of treating and diagnosing hepatoma” (priority 2003, published 2006).
